Data as given in ChEMBL document CHEMBL6114948, “Deep mutational scanning-guided design of a high-affinity helix-loop-helix peptide targeting G-CSF receptor” (Bioorg Med Chem Lett, 2025).
Residues, ends and D or L forms follow the SMILES beside them.

Experiments:
[1] = Binding affinity to recombinant G-CSFR extracellular domain (unknown origin) by surface plasmon resonance analysis; parameters: species or system Homo sapiens
[2] = Stability of the compound at 20 deg C assessed as change in alpha-helical structure by CD spectra analysis; format: physicochemical
[3] = molecular target: T1, Granulocyte colony-stimulating factor receptor (Homo sapiens) (UniProt Q99062); assay: Potency index, ratio of P8-2KA KD to test compound KD for binding affinity to recombinant G-CSFR extracellular domain (unknown origin)
T1 sequence (whole entry): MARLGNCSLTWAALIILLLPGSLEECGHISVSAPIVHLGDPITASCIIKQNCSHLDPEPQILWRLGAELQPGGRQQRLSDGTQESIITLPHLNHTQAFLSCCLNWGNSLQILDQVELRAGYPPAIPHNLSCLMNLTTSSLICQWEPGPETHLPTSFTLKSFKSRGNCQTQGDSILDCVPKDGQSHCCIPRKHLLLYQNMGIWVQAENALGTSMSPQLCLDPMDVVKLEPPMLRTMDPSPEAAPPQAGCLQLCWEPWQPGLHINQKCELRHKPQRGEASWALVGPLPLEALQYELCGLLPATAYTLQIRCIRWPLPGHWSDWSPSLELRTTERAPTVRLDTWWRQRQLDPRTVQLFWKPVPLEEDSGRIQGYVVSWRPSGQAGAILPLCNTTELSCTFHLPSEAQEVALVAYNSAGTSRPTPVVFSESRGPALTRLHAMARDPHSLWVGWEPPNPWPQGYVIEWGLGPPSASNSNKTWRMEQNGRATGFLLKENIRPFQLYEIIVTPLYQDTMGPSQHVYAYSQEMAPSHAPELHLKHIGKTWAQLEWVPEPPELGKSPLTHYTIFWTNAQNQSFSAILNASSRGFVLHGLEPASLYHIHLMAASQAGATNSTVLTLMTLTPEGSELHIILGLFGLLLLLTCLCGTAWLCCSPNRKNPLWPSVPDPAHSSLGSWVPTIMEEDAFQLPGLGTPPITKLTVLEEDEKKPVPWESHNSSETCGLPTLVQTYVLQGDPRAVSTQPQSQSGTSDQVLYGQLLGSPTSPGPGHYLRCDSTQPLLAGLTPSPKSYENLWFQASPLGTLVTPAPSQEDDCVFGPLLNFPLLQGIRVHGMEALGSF

Row | Kd [1] | Stability [2] | Ratio [3] | Compound
1 | 0.24 nM |  |  | CC[C@H](C)[C@H](NC(=O)[C@H](CCC(=O)O)NC(=O)[C@H](C)NC(=O)[C@H](CCC(=O)O)NC(=O)[C@H](CC(C)C)NC(=O)[C@H](C)NC(=O)[C@H](C)NC(=O)[C@H](CC(C)C)NC(=O)[C@H](CCC(=O)O)NC(=O)[C@H](C)NC(=O)[C@H](C)NC(=O)[C@@H](N)CS)C(=O)N[C@@H](C)C(=O)N[C@@H](C)C(=O)N[C@@H](CC(C)C)C(=O)N[C@@H](CCC(=O)O)C(=O)NCC(=O)NCC(=O)NCC(=O)NCC(=O)NCC(=O)NCC(=O)NCC(=O)N[C@@H](Cc1ccc(O)cc1)C(=O)N[C@@H](CC(C)C)C(=O)N[C@@H](CCC(=O)O)C(=O)N[C@@H](CCSC)C(=O)N[C@@H](CC(C)C)C(=O)N[C@@H](CCCCN)C(=O)N[C@@H](CC(C)C)C(=O)N[C@@H](CCCCN)C(=O)N[C@@H](CC(C)C)C(=O)N[C@@H](C)C(=O)N[C@@H](CCC(=O)O)C(=O)N[C@@H](C)C(=O)N[C@@H](CCCCN)C(=O)N[C@@H](CCCNC(=N)N)C(=O)N[C@@H](Cc1ccc(O)cc1)C(=O)N[C@@H](CS)C(=O)O (H-CAAELAALEAEIAALEGGGGGGGYLEMLKLKLAEAKRYC-OH)
2 | 0.89 nM |  |  | CC[C@H](C)[C@H](NC(=O)[C@H](C)NC(=O)[C@H](CC(C)C)NC(=O)[C@H](CCC(=O)O)NC(=O)[C@H](C)NC(=O)[C@H](C)NC(=O)[C@@H](N)CS)C(=O)N[C@@H](CC(C)C)C(=O)N[C@@H](CCC(=O)O)C(=O)N[C@@H](C)C(=O)N[C@@H](CCC(=O)O)C(=O)N[C@H](C(=O)N[C@@H](C)C(=O)N[C@@H](C)C(=O)N[C@@H](CC(C)C)C(=O)N[C@@H](CCC(=O)O)C(=O)NCC(=O)NCC(=O)NCC(=O)NCC(=O)NCC(=O)NCC(=O)NCC(=O)N[C@@H](CCCCN)C(=O)N[C@@H](CC(C)C)C(=O)N[C@@H](CCC(=O)O)C(=O)N[C@@H](CCSC)C(=O)N[C@@H](CC(C)C)C(=O)N[C@@H](CCCCN)C(=O)N[C@@H](CC(C)C)C(=O)N[C@@H](CCCCN)C(=O)N[C@@H](CC(C)C)C(=O)N[C@@H](C)C(=O)N[C@@H](CCC(=O)O)C(=O)N[C@@H](C)C(=O)N[C@@H](CCCCN)C(=O)N[C@@H](CCCNC(=N)N)C(=O)N[C@@H](Cc1ccc(O)cc1)C(=O)N[C@@H](CS)C(=O)O)[C@@H](C)CC (H-CAAELAILEAEIAALEGGGGGGGKLEMLKLKLAEAKRYC-OH)
3 | 0.16 nM |  |  | CC[C@H](C)[C@H](NC(=O)[C@H](C)NC(=O)[C@H](CC(C)C)NC(=O)[C@H](CCC(=O)O)NC(=O)[C@H](C)NC(=O)[C@H](C)NC(=O)[C@@H](N)CS)C(=O)N[C@@H](CC(C)C)C(=O)N[C@@H](CCC(=O)O)C(=O)N[C@@H](C)C(=O)N[C@@H](CCC(=O)O)C(=O)N[C@H](C(=O)N[C@@H](C)C(=O)N[C@@H](C)C(=O)N[C@@H](CC(C)C)C(=O)N[C@@H](CCC(=O)O)C(=O)NCC(=O)NCC(=O)NCC(=O)NCC(=O)NCC(=O)NCC(=O)NCC(=O)N[C@@H](Cc1ccc(O)cc1)C(=O)N[C@@H](CC(C)C)C(=O)N[C@@H](C)C(=O)N[C@@H](CCSC)C(=O)N[C@@H](CC(C)C)C(=O)N[C@@H](CCCCN)C(=O)N[C@@H](CC(C)C)C(=O)N[C@@H](CCCCN)C(=O)N[C@@H](CC(C)C)C(=O)N[C@@H](C)C(=O)N[C@@H](CCC(=O)O)C(=O)N[C@@H](C)C(=O)N[C@@H](CCCCN)C(=O)N[C@@H](CCCNC(=N)N)C(=O)N[C@@H](Cc1ccc(O)cc1)C(=O)N[C@@H](CS)C(=O)O)[C@@H](C)CC (H-CAAELAILEAEIAALEGGGGGGGYLAMLKLKLAEAKRYC-OH)
4 | 0.18 nM |  |  | CC[C@H](C)[C@H](NC(=O)[C@H](C)NC(=O)[C@H](CC(C)C)NC(=O)[C@H](CCC(=O)O)NC(=O)[C@H](C)NC(=O)[C@H](C)NC(=O)[C@@H](N)CS)C(=O)N[C@@H](CC(C)C)C(=O)N[C@@H](CCC(=O)O)C(=O)N[C@@H](C)C(=O)N[C@@H](CCC(=O)O)C(=O)N[C@H](C(=O)N[C@@H](C)C(=O)N[C@@H](C)C(=O)N[C@@H](CC(C)C)C(=O)N[C@@H](CCC(=O)O)C(=O)NCC(=O)NCC(=O)NCC(=O)NCC(=O)NCC(=O)NCC(=O)NCC(=O)N[C@@H](Cc1ccc(O)cc1)C(=O)N[C@@H](CC(C)C)C(=O)N[C@@H](CCC(=O)O)C(=O)N[C@@H](CCSC)C(=O)N[C@@H](CC(C)C)C(=O)N[C@@H](CCCCN)C(=O)N[C@@H](CC(C)C)C(=O)N[C@@H](CCCCN)C(=O)N[C@@H](CC(C)C)C(=O)N[C@@H](C)C(=O)N[C@@H](CCC(=O)O)C(=O)N[C@@H](C)C(=O)N[C@@H](CCCCN)C(=O)N[C@@H](CCCNC(=N)N)C(=O)N[C@@H](Cc1ccc(O)cc1)C(=O)N[C@@H](CS)C(=O)O)[C@@H](C)CC (H-CAAELAILEAEIAALEGGGGGGGYLEMLKLKLAEAKRYC-OH)
5 | 2.8 nM |  |  | CC[C@H](C)[C@H](NC(=O)[C@H](C)NC(=O)[C@H](CC(C)C)NC(=O)[C@H](CCC(=O)O)NC(=O)[C@H](C)NC(=O)[C@H](C)NC(=O)[C@@H](N)CS)C(=O)N[C@@H](CC(C)C)C(=O)N[C@@H](CCC(=O)O)C(=O)N[C@@H](C)C(=O)N[C@@H](CCC(=O)O)C(=O)N[C@H](C(=O)N[C@@H](C)C(=O)N[C@@H](C)C(=O)N[C@@H](CC(C)C)C(=O)N[C@@H](CCC(=O)O)C(=O)NCC(=O)NCC(=O)NCC(=O)NCC(=O)NCC(=O)NCC(=O)NCC(=O)N[C@@H](Cc1ccc(O)cc1)C(=O)N[C@@H](CC(C)C)C(=O)N[C@@H](CCC(=O)O)C(=O)N[C@@H](CCSC)C(=O)N[C@@H](CC(C)C)C(=O)N[C@@H](CCCCN)C(=O)N[C@@H](CC(C)C)C(=O)N[C@@H](CCCCN)C(=O)N[C@@H](CC(C)C)C(=O)N[C@@H](C)C(=O)N[C@@H](CCC(=O)O)C(=O)N[C@@H](CC(C)C)C(=O)N[C@@H](CCCCN)C(=O)N[C@@H](CCCNC(=N)N)C(=O)N[C@@H](Cc1ccc(O)cc1)C(=O)N[C@@H](CS)C(=O)O)[C@@H](C)CC (H-CAAELAILEAEIAALEGGGGGGGYLEMLKLKLAELKRYC-OH)
6 | 0.49 nM |  |  | CC[C@H](C)[C@H](NC(=O)[C@H](C)NC(=O)[C@H](CC(C)C)NC(=O)[C@H](CCC(=O)O)NC(=O)[C@H](C)NC(=O)[C@H](C)NC(=O)[C@@H](N)CS)C(=O)N[C@@H](CC(C)C)C(=O)N[C@@H](CCC(=O)O)C(=O)N[C@@H](C)C(=O)N[C@@H](CCC(=O)O)C(=O)N[C@@H](CC(C)C)C(=O)N[C@@H](C)C(=O)N[C@@H](C)C(=O)N[C@@H](CC(C)C)C(=O)N[C@@H](CCC(=O)O)C(=O)NCC(=O)NCC(=O)NCC(=O)NCC(=O)NCC(=O)NCC(=O)NCC(=O)N[C@@H](Cc1ccc(O)cc1)C(=O)N[C@@H](CC(C)C)C(=O)N[C@@H](CCC(=O)O)C(=O)N[C@@H](CCSC)C(=O)N[C@@H](CC(C)C)C(=O)N[C@@H](CCCCN)C(=O)N[C@@H](CC(C)C)C(=O)N[C@@H](CCCCN)C(=O)N[C@@H](CC(C)C)C(=O)N[C@@H](C)C(=O)N[C@@H](CCC(=O)O)C(=O)N[C@@H](C)C(=O)N[C@@H](CCCCN)C(=O)N[C@@H](CCCNC(=N)N)C(=O)N[C@@H](Cc1ccc(O)cc1)C(=O)N[C@@H](CS)C(=O)O (H-CAAELAILEAELAALEGGGGGGGYLEMLKLKLAEAKRYC-OH)
7 | 380 nM | Stable |  | H-AELAALEAELAALEGGGGGGGKLAMLKLKLAELKRY-OH
8 | 16 nM | Stable | 24 | H-AELAILEAEIAALEGGGGGGGYLEMLKLKLAEAKRY-OH
